Data published in patent US20110124564A1, “NUCLEOLIN-BINDING PEPTIDES, NUCLEOLIN- BINDING LYTIC PEPTIDES, FUSION CONSTRUCTS AND METHODS OF MAKING AND USING SAME” (ESPERANCE PHARMACEUTICALS, INC., published 2011).
Where “and” joins values, the source holds several entries; their conditions need not be identical. Identical values can stand only once. Like-named read-outs stand apart in the source and are kept apart here. Residues, ends and D or L forms follow the SMILES beside them.

Columns and labels:
human red blood cells = test: Hemolytic activity; type: cell-based
Description: Hemolytic activity was studied by incubating the fusion constructs with human red blood cells at concentrations of 0.01, 0.1, 1, 10 and 50 μM for 2 hours. Saline and 0.1% Triton served as controls.
Hemolytic activity of the compounds was studied by incubating EP-301 and EP-302 with human red blood cells at concentrations of 0.01, 0.1, 1, 10 and 50 μM for 2 hours.

[1] = tested on: MDA-MB-435S breast cancer cells; type: cell-based, human
Description: Twelve different fusion constructs were analyzed for anti-cancer activity in vitro against MDA-MB-435S breast cancer cells and for hemolytic activity in vitro to human red blood cells. Fusion constructs of the following sequence were tested:
The peptide conjugates were freshly dissolved in saline and added into cancer cell seeded multi-well plates at increasing concentrations of 0, 0.001, 0.01, 0.1, 1, 2, 5, 10 and 100 μM. Incubations were conducted for 4 h at 37° C. Cell viability was determined using formazan conversion assays (MTT assays). Controls were treated with USP saline or 0.1% TritonX-100™ as reference for 0 and 100% cell death, respectively. Cytotoxicity was evaluated as an IC50 value.

[2] = target: nucleolin expressed on the surface of human cancer cell lines (human, UniProt P19338); test: cell-based or functional assay
[3] = MDA-MB-435S, 4 h at 37° C, MTT, read-out: IC50

Row | IC50 ([1]; 4 h) [nM] | Molecule | IC50 of cytotoxicity (MTT), MDA-MB-435S breast cancer cells, 4 h [2] [nM] | further results
1 | – | CC(C)C[C@H](NC(=O)[C@H](CCCNC(=N)N)NC(=O)[C@H](C)NC(=O)[C@H](Cc1ccccc1)NC(=O)[C@H](CCCCN)NC(=O)[C@H](C)NC(=O)[C@H](Cc1ccccc1)NC(=O)[C@H](CCCCN)NC(=O)[C@H](CCCCN)NC(=O)[C@H](C)NC(=O)[C@H](Cc1ccccc1)NC(=O)[C@H](CCCCN)NC(=O)[C@H](C)NC(=O)[C@H](Cc1ccccc1)NC(=O)[C@H](CCCCN)NC(=O)[C@H](CCCCN)NC(=O)[C@H](C)NC(=O)[C@H](Cc1ccccc1)NC(=O)[C@H](CCCCN)NC(=O)[C@H](C)NC(=O)[C@H](Cc1ccccc1)NC(=O)[C@@H](N)CCCCN)C(=O)N[C@@H](Cc1ccccc1)C(=O)N[C@@H](C)C(=O)N[C@@H](CCCCN)C(=O)O (H-KFAKFAKKFAKFAKKFAKFARLFAK-OH) | – | HA50 (human red blood cells; human red blood cells, 2 hours): 14.3 µM and 14.3 ± 2.1 µM; IC50 [1, 3]: 1230 ± 700 nM
2 | 7300 | CC(C)C[C@H](NC(=O)[C@H](CCCNC(=N)N)NC(=O)[C@H](C)NC(=O)[C@H](CO)NC(=O)[C@H](CCCNC(=N)N)NC(=O)[C@H](CCCNC(=N)N)NC(=O)[C@H](CCC(N)=O)NC(=O)[C@@H]1CCCN1C(=O)[C@H](C)NC(=O)[C@H](CCCNC(=N)N)NC(=O)[C@H](CCCCN)NC(=O)[C@H](CCCCN)NC(=O)[C@H](C)NC(=O)[C@H](Cc1ccccc1)NC(=O)[C@H](CCCCN)NC(=O)[C@H](CCCCN)NC(=O)[C@H](C)NC(=O)[C@H](Cc1ccccc1)NC(=O)[C@H](CCCCN)NC(=O)[C@H](C)NC(=O)[C@H](Cc1ccccc1)NC(=O)[C@H](CCCCN)NC(=O)[C@H](CCCCN)NC(=O)[C@H](C)NC(=O)[C@H](Cc1ccccc1)NC(=O)[C@H](CCCCN)NC(=O)[C@H](C)NC(=O)[C@H](Cc1ccccc1)NC(=O)[C@@H](N)CCCCN)C(=O)N[C@@H](CO)C(=O)N[C@@H](C)C(=O)N[C@@H](CCCCN)C(=O)O (H-KFAKFAKKFAKFAKKFAKKRAPQRRSARLSAK-OH; N-terminus and C-terminus assumed) | – | HA50 (human red blood cells): Not hemolytic
3 | 3600 | CC(C)C[C@H](NC(=O)[C@H](CCCNC(=N)N)NC(=O)[C@H](C)NC(=O)[C@H](CCCNC(=N)N)NC(=O)[C@H](CCCCN)NC(=O)[C@H](C)NC(=O)[C@H](Cc1ccccc1)NC(=O)[C@H](CCCCN)NC(=O)[C@H](CCCCN)NC(=O)[C@H](C)NC(=O)[C@H](Cc1ccccc1)NC(=O)[C@H](CCCCN)NC(=O)[C@H](C)NC(=O)[C@H](Cc1ccccc1)NC(=O)[C@H](CCCCN)NC(=O)[C@H](CCCCN)NC(=O)[C@H](C)NC(=O)[C@H](Cc1ccccc1)NC(=O)[C@H](CCCCN)NC(=O)[C@H](C)NC(=O)[C@H](Cc1ccccc1)NC(=O)[C@@H](N)CCCCN)C(=O)N[C@@H](CCC(N)=O)C(=O)O (H-KFAKFAKKFAKFAKKFAKRARLQ-OH) | – | –
4 | 1600 ± 50 | CC(C)C[C@H](NC(=O)[C@H](CCCNC(=N)N)NC(=O)[C@H](C)NC(=O)[C@H](CCCNC(=N)N)NC(=O)[C@H](CCCCN)NC(=O)[C@H](C)NC(=O)[C@H](Cc1ccccc1)NC(=O)[C@H](CCCCN)NC(=O)[C@H](CCCCN)NC(=O)[C@H](C)NC(=O)[C@H](Cc1ccccc1)NC(=O)[C@H](CCCCN)NC(=O)[C@H](C)NC(=O)[C@H](Cc1ccccc1)NC(=O)[C@H](CCCCN)NC(=O)[C@H](CCCCN)NC(=O)[C@H](C)NC(=O)[C@H](Cc1ccccc1)NC(=O)[C@H](CCCCN)NC(=O)[C@H](C)NC(=O)[C@H](Cc1ccccc1)NC(=O)[C@@H](N)CCCCN)C(=O)N[C@@H](CCC(N)=O)C(=O)N[C@@H](CCCNC(=N)N)C(=O)N[C@@H](CCCNC(=N)N)C(=O)O (H-KFAKFAKKFAKFAKKFAKRARLQRR-OH) | – | HA50 (human red blood cells): Not hemolytic
5 | 870 ± 3 | CC(C)C[C@H](NC(=O)[C@H](CCCNC(=N)N)NC(=O)[C@H](C)NC(=O)[C@H](CCCNC(=N)N)NC(=O)[C@H](CCCCN)NC(=O)[C@H](C)NC(=O)[C@H](Cc1ccccc1)NC(=O)[C@H](CCCCN)NC(=O)[C@H](CCCCN)NC(=O)[C@H](C)NC(=O)[C@H](Cc1ccccc1)NC(=O)[C@H](CCCCN)NC(=O)[C@H](C)NC(=O)[C@H](Cc1ccccc1)NC(=O)[C@H](CCCCN)NC(=O)[C@H](CCCCN)NC(=O)[C@H](C)NC(=O)[C@H](Cc1ccccc1)NC(=O)[C@H](CCCCN)NC(=O)[C@H](C)NC(=O)[C@H](Cc1ccccc1)NC(=O)[C@@H](N)CCCCN)C(=O)N[C@@H](CCC(N)=O)C(=O)N[C@@H](CCCNC(=N)N)C(=O)N[C@@H](CCCNC(=N)N)C(=O)N[C@@H](Cc1ccccc1)C(=O)O (H-KFAKFAKKFAKFAKKFAKRARLQRRF-OH) | – | HA50 (human red blood cells): Not hemolytic
6 | – | CC(C)C[C@H](NC(=O)[C@H](CCCNC(=N)N)NC(=O)[C@H](C)NC(=O)[C@H](Cc1ccccc1)NC(=O)[C@H](CCCNC(=N)N)NC(=O)[C@H](CCCNC(=N)N)NC(=O)[C@H](CCC(N)=O)NC(=O)[C@H](CC(C)C)NC(=O)[C@H](CCCNC(=N)N)NC(=O)[C@H](CCCCN)NC(=O)[C@H](C)NC(=O)[C@H](Cc1ccccc1)NC(=O)[C@H](CCCCN)NC(=O)[C@H](CCCCN)NC(=O)[C@H](C)NC(=O)[C@H](Cc1ccccc1)NC(=O)[C@H](CCCCN)NC(=O)[C@H](C)NC(=O)[C@H](Cc1ccccc1)NC(=O)[C@H](CCCCN)NC(=O)[C@H](CCCCN)NC(=O)[C@H](C)NC(=O)[C@H](Cc1ccccc1)NC(=O)[C@H](CCCCN)NC(=O)[C@H](C)NC(=O)[C@H](Cc1ccccc1)NC(=O)[C@@H](N)CCCCN)C(=O)N[C@@H](Cc1ccccc1)C(=O)N[C@@H](C)C(=O)N[C@@H](CCCCN)C(=O)O (H-KFAKFAKKFAKFAKKFAKRLQRRFARLFAK-OH) | – | IC50 [1, 3]: 740 ± 120 nM
7 | 4100 | CC(C)C[C@H](NC(=O)[C@H](CCCNC(=N)N)NC(=O)[C@H](C)NC(=O)[C@H](CO)NC(=O)[C@H](CCCCN)NC(=O)[C@H](C)NC(=O)[C@H](Cc1ccccc1)NC(=O)[C@H](CCCCN)NC(=O)[C@H](CCCCN)NC(=O)[C@H](C)NC(=O)[C@H](Cc1ccccc1)NC(=O)[C@H](CCCCN)NC(=O)[C@H](C)NC(=O)[C@H](Cc1ccccc1)NC(=O)[C@H](CCCCN)NC(=O)[C@H](CCCCN)NC(=O)[C@H](C)NC(=O)[C@H](Cc1ccccc1)NC(=O)[C@H](CCCCN)NC(=O)[C@H](C)NC(=O)[C@H](Cc1ccccc1)NC(=O)[C@@H](N)CCCCN)C(=O)N[C@@H](CO)C(=O)N[C@@H](C)C(=O)N[C@@H](CCCCN)C(=O)O (H-KFAKFAKKFAKFAKKFAKSARLSAK-OH) | – | –
8 | 400 ± 2 | CC(C)C[C@H](NC(=O)[C@H](CCCNC(=N)N)NC(=O)[C@H](C)NC(=O)[C@H](Cc1ccccc1)NC(=O)[C@H](CCCNC(=N)N)NC(=O)[C@H](CCCNC(=N)N)NC(=O)[C@H](CCC(N)=O)NC(=O)[C@H](CC(C)C)NC(=O)[C@H](CCCNC(=N)N)NC(=O)[C@H](C)NC(=O)[C@@H](NC(=O)[C@H](CCCCN)NC(=O)[C@H](C)NC(=O)[C@H](Cc1ccccc1)NC(=O)[C@H](CCCCN)NC(=O)[C@H](CCCCN)NC(=O)[C@H](C)NC(=O)[C@H](Cc1ccccc1)NC(=O)[C@H](CCCCN)NC(=O)[C@H](C)NC(=O)[C@H](Cc1ccccc1)NC(=O)[C@H](CCCCN)NC(=O)[C@H](CCCCN)NC(=O)[C@H](C)NC(=O)[C@H](Cc1ccccc1)NC(=O)[C@H](CCCCN)NC(=O)[C@H](C)NC(=O)[C@H](Cc1ccccc1)NC(=O)[C@@H](N)CCCCN)C(C)C)C(=O)N[C@@H](Cc1ccccc1)C(=O)N[C@@H](C)C(=O)N[C@@H](CCCCN)C(=O)O (H-KFAKFAKKFAKFAKKFAKVARLQRRFARLFAK-OH) | – | –
9 | – | KFAKFAKKFAKFAKKFAKRARLQ [KFAKFAKKFAKFAKKFAKR19ARLQ23] | 3600 | –
10 | – | KFAKFAKKFAKFAKKFAKRARLQRRF [KFAKFAKKFAKFAKKFAKR19ARLQRRF26] | 870 | –
11 | – | KFAKFAKKFAKFAKKFAKVARLQRRFARLFAK [KFAKFAKKFAKFAKKFAKV19ARLQRRFARLFAK32] | 400 | –
12 | – | KFAKFAKKFAKFAKKFAKRLQRRSARLSAK [KFAKFAKKFAKFAKKFAKR19LQRRSARLSAK30] | 2200 | –
13 | – | KFAKFAKKFAKFAKKFAKRARLQRR [KFAKFAKKFAKFAKKFAKR19ARLQRR25] | 1600 | –
14 | – | KFAKFAKKFAKFAKKFAKVARLQRRFA [KFAKFAKKFAKFAKKFAKV19ARLQRRFA27] | 800 | –
15 | – | KFAKFAKKFAKFAKKFAKRLQRRFARLFAK [KFAKFAKKFAKFAKKFAKR19LQRRFARLFAK30] | 740 | –
16 | – | KFAKFAKKFAKFAKKFAKSARLSAK [KFAKFAKKFAKFAKKFAKS19ARLSAK25] | 4100 | –
17 | – | KFAKFAKKFAKFAKKFAKKRAPQRRSARLSAK [KFAKFAKKFAKFAKKFAKK19RAPQRRSARLSAK32] | 7300 | –
18 | – | KFAKFAKKFAKFAKKFAKFARLFAK [KFAKFAKKFAKFAKKFAKF19ARLFAK25] | 1230 | –
